Assay results as given in ChEMBL document CHEMBL1126625, “7-Azetidinylquinolones as antibacterial agents. Synthesis and structure-activity relationships” (J Med Chem, 1993).
≈ marks a conversion by molar mass, not a printed value.

Tests used:
Type in all cases: functional
[1] = test system: Escherichia coli; experiment: Minimum inhibitory concentration (MIC)preventing growth of Escherichia coli
[2] = test system: Staphylococcus aureus; experiment: Minimum inhibitory concentration (MIC) preventing growth of […]
[3] = test system: Bacillus subtilis; experiment: Minimum inhibitory concentration (MIC) preventing growth of Bacillus subtilis
[4] = test system: Enterococcus faecalis; experiment: Minimum inhibitory concentration (MIC) preventing growth of Streptococcus faecalis ATCC 10541
[5] = test system: Klebsiella pneumoniae; experiment: Minimum inhibitory concentration (MIC)preventing growth of Klebsiella pneumoniae
[6] = test system: Enterobacter cloacae; experiment: Minimum inhibitory concentration (MIC)preventing growth of Enterobacter cloacae
[7] = test system: Pseudomonas aeruginosa; experiment: Minimum inhibitory concentration (MIC)preventing growth of Pseudomonas aeruginosa
[8] = test system: Proteus vulgaris; experiment: Minimum inhibitory concentration (MIC) preventing growth of Proteus vulgaris
[9] = test system: Morganella morganii; experiment: Minimum inhibitory concentration (MIC) preventing growth of Morganella morganii
[10] = test system: Staphylococcus epidermidis; experiment: Minimum inhibitory concentration (MIC) preventing growth of Staphylococcus epidermidis
[11] = test system: Bacillus cereus; experiment: Minimum inhibitory concentration (MIC) preventing growth of Bacillus cereus

## Nc1c(F)c(N2CC(N)C2)c(F)c2c1c(=O)c(C(=O)O)cn2C1CC1
[1]
  MIC: 0.015 mg/L (≈ 0.0428 µM)
[2]
  MIC: 0.06 mg/L (≈ 0.171 µM)
[3]
  MIC: 0.015 mg/L (≈ 0.0428 µM)
[4]
  MIC: 0.25 mg/L (≈ 0.714 µM)
[5]
  MIC: 0.015 mg/L (≈ 0.0428 µM)
[6]
  MIC: 0.015 mg/L (≈ 0.0428 µM)
[7]
  MIC: 0.25 mg/L (≈ 0.714 µM)
[8]
  MIC: 0.06 mg/L (≈ 0.171 µM)
[9]
  MIC: 0.015 mg/L (≈ 0.0428 µM)
[10]
  MIC: 0.12 mg/L (≈ 0.343 µM)
[11]
  MIC: 0.015 mg/L (≈ 0.0428 µM)

## CC1(N)CN(c2c(F)cc3c(=O)c(C(=O)O)cn(-c4ccc(F)cc4F)c3c2F)C1
[1]
  MIC: 0.25 mg/L (≈ 0.593 µM)
[2]
  MIC: 0.25 mg/L (≈ 0.593 µM)
[3]
  MIC: 0.25 mg/L (≈ 0.593 µM)
[4]
  MIC: 0.25 mg/L (≈ 0.593 µM)
[5]
  MIC: 0.5 mg/L (≈ 1.19 µM)
[6]
  MIC: 0.25 mg/L (≈ 0.593 µM)
[7]
  MIC: 2 mg/L (≈ 4.75 µM)
[8]
  MIC: 0.5 mg/L (≈ 1.19 µM)
[9]
  MIC: 0.5 mg/L (≈ 1.19 µM)
[10]
  MIC: 0.5 mg/L (≈ 1.19 µM)
[11]
  MIC: 0.5 mg/L (≈ 1.19 µM)

## CC1(N)CN(c2c(F)cc3c(=O)c(C(=O)O)cn(CCF)c3c2Cl)C1
[1]
  MIC: 0.06 mg/L (≈ 0.161 µM)
[2]
  MIC: 0.25 mg/L (≈ 0.672 µM)
[3]
  MIC: 0.06 mg/L (≈ 0.161 µM)
[4]
  MIC: 1 mg/L (≈ 2.69 µM)
[5]
  MIC: 0.015 mg/L (≈ 0.0403 µM)
[6]
  MIC: 0.015 mg/L (≈ 0.0403 µM)
[7]
  MIC: 1 mg/L (≈ 2.69 µM)
[8]
  MIC: 1 mg/L (≈ 2.69 µM)
[9]
  MIC: 0.015 mg/L (≈ 0.0403 µM)
[10]
  MIC: 0.12 mg/L (≈ 0.323 µM)
[11]
  MIC: 0.5 mg/L (≈ 1.34 µM)

## CC1(N)CN(c2nc3c(cc2F)c(=O)c(C(=O)O)cn3CCF)C1
[1]
  MIC: 0.06 mg/L (≈ 0.177 µM)
[2]
  MIC: 0.5 mg/L (≈ 1.48 µM)
[3]
  MIC: 0.12 mg/L (≈ 0.355 µM)
[4]
  MIC: 2 mg/L (≈ 5.91 µM)
[5]
  MIC: 0.06 mg/L (≈ 0.177 µM)
[6]
  MIC: 0.12 mg/L (≈ 0.355 µM)
[7]
  MIC: 2 mg/L (≈ 5.91 µM)
[8]
  MIC: 1 mg/L (≈ 2.96 µM)
[9]
  MIC: 0.12 mg/L (≈ 0.355 µM)
[10]
  MIC: 0.5 mg/L (≈ 1.48 µM)
[11]
  MIC: 0.5 mg/L (≈ 1.48 µM)

## O=C(O)c1cn(C2CC2)c2cc(N3CCC3)c(F)cc2c1=O
[1]
  MIC: 0.12 mg/L (≈ 0.397 µM)
[2]
  MIC: 0.06 mg/L (≈ 0.198 µM)
[3]
  MIC: 0.015 mg/L (≈ 0.0496 µM)
[4]
  MIC: 2 mg/L (≈ 6.62 µM)
[5]
  MIC: 0.015 mg/L (≈ 0.0496 µM)
[6]
  MIC: 0.12 mg/L (≈ 0.397 µM)
[7]
  MIC: 2 mg/L (≈ 6.62 µM)
[8]
  MIC: 0.06 mg/L (≈ 0.198 µM)
[9]
  MIC: 0.25 mg/L (≈ 0.827 µM)
[10]
  MIC: 0.06 mg/L (≈ 0.198 µM)
[11]
  MIC: 0.06 mg/L (≈ 0.198 µM)

## CC1(N)CN(c2cc3c(cc2F)c(=O)c(C(=O)O)cn3CCF)C1
[1]
  MIC: 0.5 mg/L (≈ 1.48 µM)
[2]
  MIC: 1 mg/L (≈ 2.96 µM)
[3]
  MIC: 0.25 mg/L (≈ 0.741 µM)
[4]
  MIC: 2 mg/L (≈ 5.93 µM)
[5]
  MIC: 0.5 mg/L (≈ 1.48 µM)
[6]
  MIC: 1 mg/L (≈ 2.96 µM)
[7]
  MIC: 4 mg/L (≈ 11.9 µM)
[8]
  MIC: 1 mg/L (≈ 2.96 µM)
[9]
  MIC: 0.5 mg/L (≈ 1.48 µM)
[10]
  MIC: 1 mg/L (≈ 2.96 µM)
[11]
  MIC: 1 mg/L (≈ 2.96 µM)

## CCNCC1(C)CN(c2c(F)cc3c(=O)c(C(=O)O)cn(C4CC4)c3c2F)C1
[1]
  MIC: 0.25 mg/L (≈ 0.639 µM)
[2]
  MIC: 0.25 mg/L (≈ 0.639 µM)
[3]
  MIC: 0.12 mg/L (≈ 0.307 µM)
[4]
  MIC: 1 mg/L (≈ 2.55 µM)
[5]
  MIC: 0.25 mg/L (≈ 0.639 µM)
[6]
  MIC: 0.25 mg/L (≈ 0.639 µM)
[7]
  MIC: 2 mg/L (≈ 5.11 µM)
[8]
  MIC: 0.25 mg/L (≈ 0.639 µM)
[9]
  MIC: 0.25 mg/L (≈ 0.639 µM)
[10]
  MIC: 0.25 mg/L (≈ 0.639 µM)
[11]
  MIC: 0.25 mg/L (≈ 0.639 µM)
